Source: the supplement of paper PMC4862054

Each compound was assayed on Hs578T (assay: normalised response (% of control), CellTox Green; higher = less cell death (100 = DMSO, 0 = benzethonium chloride kill control)). Conditions: incubation time: 72 h.
In short: (§1)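 After 72 h with compound in 384-well plates, breast cancer cell lines seeded as 20 µl suspension were read for CellTox Green fluorescence at 485/520 nm. CellTiter-Glo luminescence was then read after 10 min at room temperature. Compound was present at 5 concentrations in 10-fold steps over a 10,000-fold range set per compound, and plates were normalised to 0.1 % DMSO (100) and a positive kill control (0). Values are normalised signals, each at a single concentration.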

Q: Which normalised response does the source give for `O=S(=O)(c1cccc2cnccc12)N1CCCNCC1` [Fasudil] (50000 nM) here?
A: The normalised response was 118%.

Q: `Cc1cccc(-c2nn3c(c2-c2ccnc4ccc(C(N)=O)cc24)CCC3)n1` [Galunisertib] (1000 nM) was tested. Which normalised response did it give?
A: The normalised response was 112%.

Q: For `CS(=O)(=O)N1CCN(Cc2cc3nc(-c4cccc5[nH]ncc45)nc(N4CCOCC4)c3s2)CC1` [Pictilisib] (100 nM), which normalised response is on record?
A: Its normalised response is 109%.

Each compound was assayed on BT-549 in the same assay as above. Conditions: incubation time: 72 h.
In short: as §1

Q: Which normalised response does the source give for `CC/C(=C(\c1ccc(O)cc1)c1ccc(OCCN(C)C)cc1)c1ccccc1` [4-hydroxytamoxifen] (10000 nM) here?
A: The normalised response was 68%.

Q: How did the normalised response turn out when `O=S(=O)(c1cccc2cnccc12)N1CCCNCC1` [Fasudil] (50000 nM) was run?
A: The normalised response was 97.4%.

Q: `Cc1cccc(-c2nn3c(c2-c2ccnc4ccc(C(N)=O)cc24)CCC3)n1` [Galunisertib] (1000 nM) was tested. Which normalised response did it give?
A: The normalised response was 109%.

Q: With `CS(=O)(=O)N1CCN(Cc2cc3nc(-c4cccc5[nH]ncc45)nc(N4CCOCC4)c3s2)CC1` [Pictilisib] (100 nM) as the compound, how does the normalised response read?
A: Its normalised response is 101%.

Q: With `CC(C)N(CCCNC(=O)Nc1ccc(C(C)(C)C)cc1)C[C@H]1O[C@@H](n2cc(Br)c3c(N)ncnc32)[C@H](O)[C@@H]1O` [SGC0946] (10000 nM) as the compound, how does the normalised response read?
A: Its normalised response is 95.8%.

These compounds were tested on MCF-10A in the same assay as above. Conditions: incubation time: 72 h.
In short: as §1

Q: For `CC/C(=C(\c1ccc(O)cc1)c1ccc(OCCN(C)C)cc1)c1ccccc1` [4-hydroxytamoxifen] (10000 nM), which normalised response is on record?
A: The normalised response was 75.6%.

Q: For `O=S(=O)(c1cccc2cnccc12)N1CCCNCC1` [Fasudil] (50000 nM), which normalised response is on record?
A: The normalised response was 87.7%.

Q: For `Cc1cccc(-c2nn3c(c2-c2ccnc4ccc(C(N)=O)cc24)CCC3)n1` [Galunisertib] (1000 nM), which normalised response is on record?
A: The normalised response was 103%.

Q: Which normalised response does the source give for `CS(=O)(=O)N1CCN(Cc2cc3nc(-c4cccc5[nH]ncc45)nc(N4CCOCC4)c3s2)CC1` [Pictilisib] (100 nM) here?
A: Its normalised response is 106%.

Q: With `CC(C)N(CCCNC(=O)Nc1ccc(C(C)(C)C)cc1)C[C@H]1O[C@@H](n2cc(Br)c3c(N)ncnc32)[C@H](O)[C@@H]1O` [SGC0946] (10000 nM) as the compound, how does the normalised response read?
A: Its normalised response is 79.5%.

The compounds below were run on HCC1143 in the same assay as above. Conditions: incubation time: 72 h.
In short: as §1

Q: With `CC/C(=C(\c1ccc(O)cc1)c1ccc(OCCN(C)C)cc1)c1ccccc1` [4-hydroxytamoxifen] (10000 nM) as the compound, how does the normalised response read?
A: The normalised response was 68%.

Q: For `O=S(=O)(c1cccc2cnccc12)N1CCCNCC1` [Fasudil] (50000 nM), which normalised response is on record?
A: The normalised response was 99.4%.

Q: How did the normalised response turn out when `Cc1cccc(-c2nn3c(c2-c2ccnc4ccc(C(N)=O)cc24)CCC3)n1` [Galunisertib] (1000 nM) was run?
A: The normalised response was 127%.

Q: For `CS(=O)(=O)N1CCN(Cc2cc3nc(-c4cccc5[nH]ncc45)nc(N4CCOCC4)c3s2)CC1` [Pictilisib] (100 nM), which normalised response is on record?
A: The normalised response was 110%.

Q: For `CC(C)N(CCCNC(=O)Nc1ccc(C(C)(C)C)cc1)C[C@H]1O[C@@H](n2cc(Br)c3c(N)ncnc32)[C@H](O)[C@@H]1O` [SGC0946] (10000 nM), which normalised response is on record?
A: The normalised response was 100%.

These compounds were tested on MDA-MB-468 in the same assay as above. Conditions: incubation time: 72 h.
In short: as §1

Q: Which normalised response does the source give for `CC/C(=C(\c1ccc(O)cc1)c1ccc(OCCN(C)C)cc1)c1ccccc1` [4-hydroxytamoxifen] (10000 nM) here?
A: Its normalised response is -1140%.

Q: With `O=S(=O)(c1cccc2cnccc12)N1CCCNCC1` [Fasudil] (50000 nM) as the compound, how does the normalised response read?
A: The normalised response was 90.6%.

Q: For `Cc1cccc(-c2nn3c(c2-c2ccnc4ccc(C(N)=O)cc24)CCC3)n1` [Galunisertib] (1000 nM), which normalised response is on record?
A: Its normalised response is 121%.

Q: How did the normalised response turn out when `CS(=O)(=O)N1CCN(Cc2cc3nc(-c4cccc5[nH]ncc45)nc(N4CCOCC4)c3s2)CC1` [Pictilisib] (100 nM) was run?
A: The normalised response was 143%.

Q: With `CC(C)N(CCCNC(=O)Nc1ccc(C(C)(C)C)cc1)C[C@H]1O[C@@H](n2cc(Br)c3c(N)ncnc32)[C@H](O)[C@@H]1O` [SGC0946] (10000 nM) as the compound, how does the normalised response read?
A: Its normalised response is 115%.

These compounds were tested on BT-474 in the same assay as above. Conditions: incubation time: 72 h.
In short: as §1

Q: With `CC/C(=C(\c1ccc(O)cc1)c1ccc(OCCN(C)C)cc1)c1ccccc1` [4-hydroxytamoxifen] (10000 nM) as the compound, how does the normalised response read?
A: The normalised response was 14.6%.

Q: `O=S(=O)(c1cccc2cnccc12)N1CCCNCC1` [Fasudil] (50000 nM) was tested. Which normalised response did it give?
A: The normalised response was 99.3%.

Q: For `Cc1cccc(-c2nn3c(c2-c2ccnc4ccc(C(N)=O)cc24)CCC3)n1` [Galunisertib] (1000 nM), which normalised response is on record?
A: Its normalised response is 103%.

Q: With `CS(=O)(=O)N1CCN(Cc2cc3nc(-c4cccc5[nH]ncc45)nc(N4CCOCC4)c3s2)CC1` [Pictilisib] (100 nM) as the compound, how does the normalised response read?
A: The normalised response was 98.8%.

Q: With `CC(C)N(CCCNC(=O)Nc1ccc(C(C)(C)C)cc1)C[C@H]1O[C@@H](n2cc(Br)c3c(N)ncnc32)[C@H](O)[C@@H]1O` [SGC0946] (10000 nM) as the compound, how does the normalised response read?
A: The normalised response was 85.2%.

These compounds were tested on CAL-51 in the same assay as above. Conditions: incubation time: 72 h.
In short: as §1

Q: For `CC/C(=C(\c1ccc(O)cc1)c1ccc(OCCN(C)C)cc1)c1ccccc1` [4-hydroxytamoxifen] (10000 nM), which normalised response is on record?
A: The normalised response was 103%.

Q: With `O=S(=O)(c1cccc2cnccc12)N1CCCNCC1` [Fasudil] (50000 nM) as the compound, how does the normalised response read?
A: The normalised response was 116%.

Q: `Cc1cccc(-c2nn3c(c2-c2ccnc4ccc(C(N)=O)cc24)CCC3)n1` [Galunisertib] (1000 nM) was tested. Which normalised response did it give?
A: The normalised response was 98.5%.

Q: How did the normalised response turn out when `CS(=O)(=O)N1CCN(Cc2cc3nc(-c4cccc5[nH]ncc45)nc(N4CCOCC4)c3s2)CC1` [Pictilisib] (100 nM) was run?
A: The normalised response was 103%.

Q: For `CC(C)N(CCCNC(=O)Nc1ccc(C(C)(C)C)cc1)C[C@H]1O[C@@H](n2cc(Br)c3c(N)ncnc32)[C@H](O)[C@@H]1O` [SGC0946] (10000 nM), which normalised response is on record?
A: Its normalised response is 101%.

These compounds were tested on CAL-85-1 in the same assay as above. Conditions: incubation time: 72 h.
In short: as §1

Q: With `CC/C(=C(\c1ccc(O)cc1)c1ccc(OCCN(C)C)cc1)c1ccccc1` [4-hydroxytamoxifen] (10000 nM) as the compound, how does the normalised response read?
A: The normalised response was 34%.

Q: With `O=S(=O)(c1cccc2cnccc12)N1CCCNCC1` [Fasudil] (50000 nM) as the compound, how does the normalised response read?
A: Its normalised response is 80.6%.

Q: How did the normalised response turn out when `Cc1cccc(-c2nn3c(c2-c2ccnc4ccc(C(N)=O)cc24)CCC3)n1` [Galunisertib] (1000 nM) was run?
A: Its normalised response is 68.4%.

Q: With `CS(=O)(=O)N1CCN(Cc2cc3nc(-c4cccc5[nH]ncc45)nc(N4CCOCC4)c3s2)CC1` [Pictilisib] (100 nM) as the compound, how does the normalised response read?
A: The normalised response was 107%.

Q: Which normalised response does the source give for `CC(C)N(CCCNC(=O)Nc1ccc(C(C)(C)C)cc1)C[C@H]1O[C@@H](n2cc(Br)c3c(N)ncnc32)[C@H](O)[C@@H]1O` [SGC0946] (10000 nM) here?
A: Its normalised response is 114%.

What follows are compounds tested on CAL-148 in the same assay as above. Conditions: incubation time: 72 h.
In short: as §1

Q: With `CC/C(=C(\c1ccc(O)cc1)c1ccc(OCCN(C)C)cc1)c1ccccc1` [4-hydroxytamoxifen] (10000 nM) as the compound, how does the normalised response read?
A: The normalised response was 73.9%.

Q: How did the normalised response turn out when `O=S(=O)(c1cccc2cnccc12)N1CCCNCC1` [Fasudil] (50000 nM) was run?
A: The normalised response was 97.8%.

Q: Which normalised response does the source give for `Cc1cccc(-c2nn3c(c2-c2ccnc4ccc(C(N)=O)cc24)CCC3)n1` [Galunisertib] (1000 nM) here?
A: Its normalised response is 105%.

Q: With `CS(=O)(=O)N1CCN(Cc2cc3nc(-c4cccc5[nH]ncc45)nc(N4CCOCC4)c3s2)CC1` [Pictilisib] (100 nM) as the compound, how does the normalised response read?
A: Its normalised response is 92.1%.

Q: Which normalised response does the source give for `CC(C)N(CCCNC(=O)Nc1ccc(C(C)(C)C)cc1)C[C@H]1O[C@@H](n2cc(Br)c3c(N)ncnc32)[C@H](O)[C@@H]1O` [SGC0946] (10000 nM) here?
A: The normalised response was 93.7%.

What follows are compounds tested on HCC1599 in the same assay as above. Conditions: incubation time: 72 h.
In short: as §1

Q: `CC/C(=C(\c1ccc(O)cc1)c1ccc(OCCN(C)C)cc1)c1ccccc1` [4-hydroxytamoxifen] (10000 nM) was tested. Which normalised response did it give?
A: The normalised response was 82.9%.
